From patent US12264173B2 (GILEAD SCIENCES, INC., priority 2020, dated 2025)
pEC50: −log10 of the molar value. Like-named read-outs stand apart in the source and are kept apart here.

What was measured:
Assay type in all cases: cell-based
RSV strain A2 = assay: microbe, parasite or virus in culture; details: read-out: RSV HEp-2 EC50
Description: Antiviral activity against RSV is determined using an infectious cytopathic cell protection assay in HEp-2 cells. In this assay, compounds inhibiting viral infection and/or replication produce a cytoprotective effect against the virus-induced cell killing that can be quantified using a cell viability reagent. The techniques used here are novel adaptations of methods described in published literature (Chapman et al., Antimicrob Agents Chemother. 2007, 51(9):3346-53.).
HEp-2 cells are obtained from ATCC (Manassas, VI) and maintained in MEM media supplemented with 10% fetal bovine serum and penicillin/streptomycin. Cells are passaged twice a week and kept at subconfluent stage. Commercial stock of RSV strain A2 (Advanced Biotechnologies, Columbia, MD) is titered before compound testing to determine the appropriate dilution of the virus stock that generates desirable cytopathic effect in HEp-2 cells.
For antiviral tests, HEp-2 cells are grown in large cell culture flasks to near confluency but not fully so. The compounds to be tested are prediluted in DMSO in 384-well compound dilution plates, either in an 8 or 40 sample per plate standardized dose response format. 3-fold serial dilution increments of each test compound are prepared in the plates and test samples are transferred via acoustic transfer apparatus (Echo, Labcyte) at 100 nL per well into cell culture assay 384-well plates. Each compound dilution is transferred in single or quadruplicate samples into dry assay plates, which are stored until assay is ready to go. The positive and negative controls are laid out in opposite on ends of the plate in vertical blocks (1 column).
Subsequently, an infectious mixture is prepared using an appropriate dilution of virus stock previously determined by titration with cells at a density of 50,000/mL and 20 µL/well is added to test plates w/compounds via automation (uFlow, Biotek). Each plate includes negative and positive controls (16 replicates each) to create 0% and 100% virus inhibition standards, respectively. Following the infection with RSV, testing plates are incubated for 4 days in a 37° C. cell culture incubator. After the incubation, a cell viability reagent, Cell TiterGlo (Promega, Madison, WI) is added to the assay plates, which are incubated briefly, and a luminescent readout is measured (Envision, Perkin Elmer) in all the assay plates. The RSV-induced cytopathic effect, percentage inhibition, is determined from the levels of remaining cell viability. […] Various potent anti-RSV tool compounds are used as positive controls for antiviral activity.

HRV16 = HRV16 HeLa EC50 (cytopathic effect in H1-HeLa cells)
Description: H1-HeLa cells, cultured in complete DMEM medium containing 10% heat-inactivated FBS and 1% Penicillin/Streptomycin, were seeded in 96 well plates at 3000 cells/well one day prior to compound dosing and infection. The antiviral activity of each compound was measured in triplicate. Compounds were added directly to the cell cultures in serial 3-fold dilutions using the HP300 digital dispenser (Hewlett Packard, Palo Alto, CA) immediately prior to infection. The plates were transferred to BSL-2 containment and the appropriate dilution of virus stock, previously determined by titration and prepared in cell culture media, was added to test plates containing cells and serially diluted compounds. Each plate included 6 wells of infected untreated cells and 6 wells of uninfected cells that served as 0% and 100% virus inhibition control, respectively. Following the infection, test plates were incubated for 96 h in a tissue culture incubator set to 33° C./5% CO2. Following incubation, the H1-HeLa cells were removed from incubation and allowed to equilibrate to 25° C. Cell viability was determined by removing 100 μL of culture medium and adding 100 μL of Cell-Titer Glo viability reagent. The mixtures were incubated on a shaker for 10 minutes at 25° C., and the luminescence signal was quantified on an Envision luminescence plate reader.

RSV A2 = assay: RSV NHBE EC50 (RSV A2 antiviral assay in NHBE cells); details: read-out: RSV NHBE EC50
Description: Normal human bronchial epithelial (NHBE) cells were purchased from Lonza (Walkersville, MD, Cat #CC-2540) and cultured in Bronchial Epithelial Growth Media (BEGM) (Lonza, Walkersville, MD, Cat #CC-3170). The cells were passaged 1-2 times per week to maintain <80% confluency. The NHBE cells were discarded after 6 passages in culture.
To conduct the RSV A2 antiviral assay, NHBE cells were plated in 96-well plates at a density of 7,500 cells per well in BEGM and allowed to attach overnight at 37° C. Following attachment, 100 μL of cell culture media was removed and 3-fold serially diluted compound was added using a Hewlett-Packard D300 Digital Dispenser. The final concentration of DMSO was normalized to 0.05%. Following compound addition, the NHBE cells were infected by the addition of 100 μL of RSV A2 at a titer of 1×10^4.5 tissue culture infectious doses/mL in BEGM and then incubated at 37° C. for 4 days. The NHBE cells were then allowed to equilibrate to 25° C. and cell viability was determined by removing 100 μL of culture medium and adding 100 μL of Cell-Titer Glo viability reagent. The mixtures were incubated for 10 minutes at 25° C., and the luminescence signal was quantified on an Envision luminescence plate reader.

[1] = human respiratory syncytial virus, HEp-2, 96 h, Table 3, HEp-2 cells, RSV A2, 4 days
[2] = human respiratory syncytial virus, HEp-2, Table 5 comparative activity, 2',3'-OH vs -OC(O)iPr
[3] = 96 h, Table 3, H1-HeLa cells, 96 h, read-out: HRV16 HeLa EC50
[4] = HeLa, Table 5 comparative activity, 2',3'-OH vs -OC(O)iPr, read-out: HRV16 HeLa EC50
[5] = human respiratory syncytial virus, NHBE, 96 h, Table 3, NHBE cells, RSV A2, 4 days
[6] = human respiratory syncytial virus, NHBE, Table 5 comparative activity, 2',3'-OH vs -OC(O)iPr
[7] = Table 3, HEp-2 cells, RSV A2, 4 days
[8] = Table 3, H1-HeLa cells, 96 h, read-out: HRV16 HeLa EC50
[9] = Table 3, NHBE cells, RSV A2, 4 days

Structure (SMILES): CC(C)C(=O)O[C@H]1[C@H](c2ccc3c(N)ncnn23)O[C@](C#N)(COP(=O)(N[C@@H](C)C(=O)OC2CCN(C)CC2)Oc2ccccc2)[C@H]1OC(=O)C(C)C (stereo partly drawn) [Example 162, (2R,3S,4S,5S)-5-(4-aminopyrrolo[2,1-f][1,2,4]triazin-7-yl)-2-cyano-2-((((((S)-1-((1-methylpiperidin-4-yl)oxy)-1-oxopropan-2-yl)amino)(phenoxy)phosphoryl)oxy)methyl)tetrahydrofuran-3,4-diyl bis(2-methylpropanoate)]
- pEC50 (RSV strain A2; [1]): 6.75
- pEC50 (RSV strain A2; [2]): 6.75
- pEC50 (HRV16; [3]): 5.79
- pEC50 (HRV16; [4]): 5.79
- pEC50 (RSV A2; [5]): 7.55
- pEC50 (RSV A2; [6]): 7.55

Structure (SMILES): CC(C)C(=O)O[C@H]1[C@H](c2ccc3c(N)ncnn23)O[C@](C#N)(COP(=O)(N[C@@H](C)C(=O)OCC2CC2)Oc2ccccc2)[C@H]1OC(=O)C(C)C (stereo partly drawn) [Example 238, (2R,3S,4S,5S)-5-(4-aminopyrrolo[2,1-f][1,2,4]triazin-7-yl)-2-cyano-2-((((((S)-1-(cyclopropylmethoxy)-1-oxopropan-2-yl)amino)(phenoxy)phosphoryl)oxy)methyl) tetrahydrofuran-3,4-diyl bis(2-methylpropanoate)]
- pEC50 (RSV strain A2; [7]): 7.57
- pEC50 (HRV16; [8]): 7.00
- pEC50 (RSV A2; [9]): 7.55

Structure (SMILES): C[C@H](NP(=O)(OC[C@@]1(C#N)O[C@@H](c2ccc3c(N)ncnn23)[C@H](O)[C@@H]1O)Oc1ccccc1)C(=O)O[C@H]1CCN(C)C1 (stereo partly drawn) [Example 15, (S)-1-methylpyrrolidin-3-yl ((((2R,3S,4R,5S)-5-(4-aminopyrrolo[2,1-f][1,2,4]triazin-7-yl)-2-cyano-3,4-dihydroxytetrahydrofuran-2-yl)methoxy)(phenoxy)phosphoryl)-L-alaninate]
- pEC50 (RSV strain A2; [2]): 5.36
- pEC50 (HRV16; [4]): 4.94
- pEC50 (RSV A2; [6]): 5.49

Structure (SMILES): CC(C)C(=O)OC1C(c2ccc3c(N)ncnn23)OC(C#N)(COP(=O)(NC(C)C(=O)OC2CCN(C)C2)Oc2ccccc2)C1OC(=O)C(C)C (single isomer, unassigned) [Example 230]
- pEC50 (RSV strain A2; [7]): 6.99
- pEC50 (HRV16; [8]): 6.06
- pEC50 (RSV A2; [9]): 7.33

Structure (SMILES): CC(C)C(=O)OC1C(c2ccc3c(N)ncnn23)OC(C#N)(COP(=O)(NC(C)C(=O)OC2CCN(C)C2)Oc2ccccc2)C1OC(=O)C(C)C (single isomer, unassigned) [Example 229]
- pEC50 (RSV strain A2; [7]): 7.80
- pEC50 (HRV16; [8]): 6.17
- pEC50 (RSV A2; [9]): 7.64

Structure (SMILES): COC(=O)[C@H](C)N[P@](=O)(OC[C@@]1(C#N)O[C@@H](c2ccc3c(NC(=O)C4CCN(C)CC4)ncnn23)[C@H](OC(=O)C2CCN(C)CC2)[C@@H]1OC(=O)C1CCN(C)CC1)Oc1ccccc1 [Example 220, (2R,3S,4S,5S)-2-cyano-2-((((S)-(((S)-1-methoxy-1-oxopropan-2-yl)amino)(phenoxy)phosphoryl)oxy)methyl)-5-(4-(1-methylpiperidine-4-carboxamido)pyrrolo[2,1-f][1,2,4]triazin-7-yl)tetrahydrofuran-3,4-diyl bis(1-methylpiperidine-4-carboxylate)]
- pEC50 (RSV strain A2; [1]): 6.78
- pEC50 (HRV16; [3]): 4.87
- pEC50 (RSV A2; [5]): 5.31

Structure (SMILES): C[C@H](NP(=O)(OC[C@@]1(C#N)O[C@@H](c2ccc3c(N)ncnn23)[C@H](O)[C@@H]1O)Oc1ccccc1)C(=O)OC1CCN(C)CC1 (stereo partly drawn) [Example 19]
- pEC50 (RSV strain A2; [2]): 5.38
- pEC50 (HRV16; HeLa, read-out: HRV16 HeLa EC50, Table 5 comparative activity, 2',3'-OH vs -OC(O)iPr): ≤ 4.30
- pEC50 (RSV A2; [6]): < 5.30

Structure (SMILES): CC(C)C(=O)O[C@H]1[C@H](c2ccc3c(N)ncnn23)O[C@](C#N)(COP(=O)(N[C@@H](C)C(=O)O[C@H]2CCN(C)C2)Oc2ccccc2)[C@H]1OC(=O)C(C)C (stereo partly drawn) [Example 228, (2R,3S,4S,5S)-5-(4-aminopyrrolo[2,1-f][1,2,4]triazin-7-yl)-2-cyano-2-((((((S)-1-(((S)-1-methylpyrrolidin-3-yl)oxy)-1-oxopropan-2-yl)amino)(phenoxy)phosphoryl)oxy)methyl)tetrahydrofuran-3,4-diyl bis(2-methylpropanoate)]
- pEC50 (RSV strain A2; [1]): 7.08
- pEC50 (RSV strain A2; [2]): 7.08
- pEC50 (HRV16; [3]): 6.02
- pEC50 (HRV16; [4]): 6.02
- pEC50 (RSV A2; [5]): 7.23
- pEC50 (RSV A2; [6]): 7.23

Structure (SMILES): CC(C)C(=O)O[C@H]1[C@H](c2ccc3c(N)ncnn23)O[C@](C#N)(COP(=O)(N[C@@H](C)C(=O)O[C@H]2CCOC2)Oc2ccccc2)[C@H]1OC(=O)C(C)C (single isomer, unassigned) [Example 241]
- pEC50 (RSV strain A2; [7]): 7.60
- pEC50 (HRV16; [8]): 6.88
- pEC50 (RSV A2; [9]): 7.89

Structure (SMILES): COCCCOC(=O)[C@H](C)NP(=O)(OC[C@@]1(C#N)O[C@@H](c2ccc3c(N)ncnn23)[C@H](OC(=O)C(C)C)[C@@H]1OC(=O)C(C)C)Oc1ccccc1 (stereo partly drawn) [Example 222, (2R,3S,4S,5S)-5-(4-Aminopyrrolo[2,1-f][1,2,4]triazin-7-yl)-2-cyano-2-((((((S)-1-(3-methoxypropoxy)-1-oxopropan-2-yl)amino)(phenoxy)phosphoryl)oxy)methyl) tetrahydrofuran-3,4-diyl bis(2-methylpropanoate)]
- pEC50 (RSV strain A2; [1]): 7.57
- pEC50 (HRV16; [3]): 6.84
- pEC50 (RSV A2; [5]): 7.60
